Where “and” joins values, the source holds several entries; their conditions need not be identical. Equal entries are not always repeated. Where two headings read alike, the source gives them in different places.
Tests used:
Format in all cases: cell-based, Plasmodium falciparum
[1] = test system: HCR2 parasites (highly cipargamin-resistant clone 2); test: P. falciparum proliferation assay (72 h, fluorescent DNA-intercalating dye)
Description: (§1) For experiments with all other parasites, the effects of compounds of interest on parasite proliferation was measured in 96-well plates containing serial dilutions of the compounds in culture medium, with a fluorescent DNA-intercalating dye used to detect surviving parasites. The assays were initiated with erythrocytes infected with predominantly ring-stage parasites, and the starting parasitaemia and haematocrit were both 1%.

[2] = test system: Dd2-PfATP4^T418N,P990R parasites; test: as above
Description: as §1

Dd2-Polδ parasites = test: as above
Description: as §1

[3] = test system: HCR1 parasites (highly cipargamin-resistant clone 1); test: as above
Description: as §1

[4] = test system: Dd2-Polδ-PfATP4^G358S parasites; test: as above
Description: as §1

Dd2 parasites = test: as above
Description: as §1

NF54^G358S-1 parasites = test: P. falciparum proliferation assay (72 h, flow cytometry, SYBR Green I/MitoTracker)
Summary of the method: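 Predominantly ring-stage cultures at 0.3% parasitaemia, 1% haematocrit, in medium with 10% O+ human serum; compound exposure 72 h, DMSO <0.5% (v/v). Live parasites counted by flow cytometry with SYBR Green I and 200 nM MitoTracker Deep Red. IC50/IC90 from linear interpolation of dose-response data.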

C[C@H]1[C@@H](O)O[C@@H]2O[C@@]3(C)CC[C@H]4[C@H](C)CC[C@@H]1[C@@]24OO3 [Dihydroartemisinin]
IC50 ([1]; Plasmodium falciparum, read-out: Dihydroartemisinin IC50 values, HCR2, MEAN): 1.51 nM | IC50 ([1]; Plasmodium falciparum, read-out: Dihydroartemisinin IC50 values, HCR2, single experiments): 1.46 nM | IC50 ([1]; read-out: Dihydroartemisinin IC50 values, HCR2, single experiments): 1.62 nM and 1.77 nM and 1.19 nM | IC50 ([2]; Plasmodium falciparum, DD2, read-out: Dihydroartemisinin IC50 values, Dd2-PfATP4T418N,P990R, MEAN): 2.44 nM | IC50 ([2]; Plasmodium falciparum, DD2, read-out: Dihydroartemisinin IC50 values, Dd2-PfATP4T418N,P990R, single experiments): 2.1 nM | IC50 ([2]; read-out: Dihydroartemisinin IC50 values, Dd2-PfATP4T418N,P990R, single experiments): 2.01 nM and 2.76 nM and 2.9 nM | IC50 (Dd2-Polδ parasites; Plasmodium falciparum, DD2, read-out: Dihydroartemisinin IC50 values, Dd2-Polδ, MEAN): 2.15 nM | IC50 (Dd2-Polδ parasites; Plasmodium falciparum, DD2, read-out: Dihydroartemisinin IC50 values, Dd2-Polδ, single experiments): 2.08 nM | IC50 (Dd2-Polδ parasites; read-out: Dihydroartemisinin IC50 values, Dd2-Polδ, single experiments): 2.37 nM and 1.58 nM and 2.55 nM | IC50 ([3]; Plasmodium falciparum, read-out: Dihydroartemisinin IC50 values, HCR1, MEAN): 1.55 nM | IC50 ([3]; read-out: Dihydroartemisinin IC50 values, HCR1, single experiments): 1.37 nM and 2.01 nM and 1.76 nM | IC50 ([4]; Plasmodium falciparum, DD2, read-out: Dihydroartemisinin IC50 values, Dd2-Polδ-PfATP4G358S, MEAN): 2.58 nM | IC50 ([4]; Plasmodium falciparum, DD2, read-out: Dihydroartemisinin IC50 values, Dd2-Polδ-PfATP4G358S, single experiments): 2.3 nM | IC50 ([4]; read-out: Dihydroartemisinin IC50 values, Dd2-Polδ-PfATP4G358S, single experiments): 2.08 nM and 3.3 nM and 2.66 nM | IC50 (Dd2 parasites; Plasmodium falciparum, DD2, read-out: Dihydroartemisinin IC50 values, Dd2, MEAN): 2.17 nM | IC50 (Dd2 parasites; Plasmodium falciparum, DD2, read-out: Dihydroartemisinin IC50 values, Dd2, single experiments): 1.79 nM | IC50 (Dd2 parasites; read-out: Dihydroartemisinin IC50 values, Dd2, single experiments): 1.66 nM and 2.87 nM and 2.36 nM | FC (IC50) (NF54^G358S-1 parasites; NF54G358S-1 compared to NF54WT): 1.1 fold | FC (IC90) (NF54^G358S-1 parasites; NF54G358S-1 compared to NF54WT): 1.1 fold | IC90 (NF54^G358S-1 parasites; NF54G358S-1 parasites, individual experiments, read-out: IC90 values): 2.78 nM and 2.34 nM and 2.64 nM | IC90 (NF54^G358S-1 parasites; Plasmodium falciparum, NF54, NF54G358S-1 parasites, individual experiments, read-out: IC90 values): 2.68 nM | IC90 (NF54^G358S-1 parasites; Plasmodium falciparum, NF54, NF54G358S-1 parasites, mean of the experiments, read-out: IC90 values, MEAN): 2.6 nM | IC50 (NF54^G358S-1 parasites; Plasmodium falciparum, NF54, read-out: Dihydroartemisinin IC50 values, NF54G358S-1, MEAN): 0.9 nM | IC50 (NF54^G358S-1 parasites; read-out: Dihydroartemisinin IC50 values, NF54G358S-1, single experiments): 0.76 nM and 0.77 nM
